Laboratory results: patent US20220289765A1, “CRYSTAL OF CARCINOGENIC FUSED KINASE INHIBITOR AND APPLICATIONS THEREOF” (Simcere Pharmaceutical Co., Ltd., priority 2019, published 2022)
Read-outs that look alike come from different tables or passages of the source.

Legend:
BaF3 ETV6-NTRK3-G623R = experiment: Cell proliferation inhibition (CellTiter-Glo, 72 h); type: cell-based; details: Mus musculus, read-out: Half Inhibitory Concentrations of Cells IC50, BaF3 ETV6-NTRK3-G623R
[1] = test system: human lung cancer LU-01-0414 subcutaneous xenograft tumor; experiment: Efficacy test in mice, LU-01-0414 subcutaneous xenograft; type: in vivo, BALB/c mouse; details: PO, 14 days, LU-01-0414 xenograft
Description: The in vivo efficacy of test drugs such as the compound of Formula (I) on human lung cancer LU-01-0414 subcutaneous xenograft tumor in a BALB/c mouse model was evaluated.
The compounds were prepared into clear solutions using 5% DMSO+10% solutol+85% water as a solvent for administration in PO (gavage) groups.
The tumor diameters were measured twice a week using a vernier caliper. The formula for calculating the tumor volume is: V=0.5×a×b^2, wherein a and b represent the long diameter and the short diameter of the tumor, respectively. The antitumor efficacy of the compounds was evaluated with TGI (%), which reflects the inhibition rate of tumor growth.
Statistical analysis was performed using SPSS software based on relative tumor volume and tumor weight at the end of the experiment. Comparisons among multiple groups were analyzed by one-way ANOVA. If the variances were homogeneous (no significant difference in F-values), the analysis was performed by the Tukey's method, and if the variances were not homogeneous (significant difference in F-values), the test was performed by the Games-Howell method. P<0.05 was considered as a significant difference.

[2] = Cassette pharmacokinetic test in mice (plasma, brain, CSF); type: in vivo, male CD-1 mice; details: cassette; for AUC(0-inf): read-out: Area under Curve AUC0-inf
Description: The pharmacokinetic behaviors of the compounds of the present invention in mice were studied and the pharmacokinetic properties thereof were evaluated.

[3] = Pharmacokinetic test in mice; type: in vivo; details: male CD-1 mice; for AUC(0-t): read-out: Area under Curve AUC0-last
Description: The drug concentrations of the compounds in plasma at different time points were determined by LC/MS/MS method after single intravenous (IV) and intragastric (PO) administration of the compounds to 7-9 week old male CD-1 mice as the test animals. The pharmacokinetic behaviors of the compounds of the present invention in mice were studied and pharmacokinetic properties thereof were evaluated.
The compounds were prepared into clear solutions using 5% DMSO+10% solutol+85% water as a solvent for administration in IV (intravenous injection) and PO (gavage) groups. The administration dosage of each compound was 3 mg/kg for the IV group and […] for the PO group.

Ba/F3 LMNA-NTRK1-F589L = experiment: Cell proliferation inhibition (CellTiter-Glo, 72 h); type: cell-based; details: Mus musculus, BaF3, read-out: Half Inhibitory Concentrations of Cells IC50, Ba/F3 LMNA-NTRK1-F589L
Ba/F3 LMNA-NTRK1-G595R = experiment: as above; type: cell-based; details: Mus musculus, BaF3, read-out: Half Inhibitory Concentrations of Cells IC50, Ba/F3 LMNA-NTRK1-G595R
TrkA = target: T1, TrkA (Homo sapiens, UniProt P04629); experiment: Kinase inhibitory activity (33P-ATP filtration-binding, Reaction Biology Corp.); type: biochemical; details: read-out: Half Inhibitory Concentrations of Kinases IC50, TrkA
T1 construct: purchased Reaction Biology Corp
Description: (§1) The resulting mixture was incubated at room temperature for 20 minutes, and a certain concentration of 33P-ATP was added to the reaction mixture to initiate the reaction, followed by incubation at room temperature for 120 minutes. Finally, the radioactivity of the reactants was detected by a filtration-binding method. The final kinase activity was expressed by the ratio of the remaining kinase activity in the test sample to the kinase activity of the DMSO control group. The dose-effect curve was fitted by GraphPad software and the IC50 values were calculated.

Ros-G2032R = target: T2, Ros-G2032R (Homo sapiens, UniProt P08922, G2032R); experiment: as above; type: biochemical; details: read-out: Half Inhibitory Concentrations of Kinases IC50, Ros-G2032R
T2 construct: purchased Reaction Biology Corp
Description: as §1

TrkC = target: T3, TrkC (Homo sapiens, UniProt Q16288); experiment: as above; type: biochemical; details: read-out: Half Inhibitory Concentrations of Kinases IC50, TrkC
T3 construct: purchased Reaction Biology Corp
Description: as §1

Ros1 = target: T4, Ros1 (Homo sapiens, UniProt P08922); experiment: as above; type: biochemical; details: read-out: Half Inhibitory Concentrations of Kinases IC50, Ros1
T4 construct: purchased Reaction Biology Corp
Description: as §1

TrkA-G595R = target: T5, TrkA-G595R (Homo sapiens, UniProt P04629, G595R); experiment: as above; type: biochemical; details: read-out: Half Inhibitory Concentrations of Kinases IC50, TrkA-G595R
T5 construct: purchased Reaction Biology Corp
Description: as §1

TrkA-G667C = target: T6, TrkA-G667C (Homo sapiens, UniProt P04629, G667C); experiment: as above; type: biochemical; details: read-out: Half Inhibitory Concentrations of Kinases IC50, TrkA-G667C
T6 construct: purchased Reaction Biology Corp
Description: as §1

[4] = test system: Ba/F3 SLC34A2-ROS1-G2032R; experiment: Cell proliferation inhibition (CellTiter-Glo, 72 h); type: cell-based; details: Mus musculus, BaF3, read-out: Half Inhibitory Concentrations of Cells IC50, Ba/F3 SLC34A2-ROS1-G2032R
Ba/F3 SLC34A2-ROS1-WT = experiment: as above; type: cell-based; details: Mus musculus, BaF3, read-out: Half Inhibitory Concentrations of Cells IC50, Ba/F3 SLC34A2-ROS1-WT

T6 sequence (P04629 33-796 G667C): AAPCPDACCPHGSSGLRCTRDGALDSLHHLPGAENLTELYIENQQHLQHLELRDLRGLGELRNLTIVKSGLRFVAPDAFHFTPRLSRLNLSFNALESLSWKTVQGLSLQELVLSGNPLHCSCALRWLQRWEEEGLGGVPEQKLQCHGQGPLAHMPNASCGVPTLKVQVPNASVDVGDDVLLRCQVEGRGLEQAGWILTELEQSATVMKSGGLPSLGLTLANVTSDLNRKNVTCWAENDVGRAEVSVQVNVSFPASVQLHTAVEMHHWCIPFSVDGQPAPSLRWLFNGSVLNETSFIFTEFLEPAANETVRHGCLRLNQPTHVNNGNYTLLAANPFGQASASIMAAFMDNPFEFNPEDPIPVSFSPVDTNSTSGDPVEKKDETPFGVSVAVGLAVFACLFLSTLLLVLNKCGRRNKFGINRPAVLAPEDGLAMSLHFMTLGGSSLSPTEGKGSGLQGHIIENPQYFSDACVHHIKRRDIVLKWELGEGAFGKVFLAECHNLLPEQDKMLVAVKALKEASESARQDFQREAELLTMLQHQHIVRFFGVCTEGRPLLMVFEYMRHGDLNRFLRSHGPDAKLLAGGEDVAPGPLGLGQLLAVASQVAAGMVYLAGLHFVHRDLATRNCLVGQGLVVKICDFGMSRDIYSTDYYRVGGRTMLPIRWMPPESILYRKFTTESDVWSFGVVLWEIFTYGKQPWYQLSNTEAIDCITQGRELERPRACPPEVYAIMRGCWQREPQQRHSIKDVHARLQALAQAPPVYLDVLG
T5 sequence (P04629 33-796 G595R): as the sequence (P04629 33-796 G667C) above, with G563R, C635G counted along it
T1 sequence (P04629 33-796): as the sequence (P04629 33-796 G667C) above, with C635G counted along it
T4 sequence (P08922 28-2347): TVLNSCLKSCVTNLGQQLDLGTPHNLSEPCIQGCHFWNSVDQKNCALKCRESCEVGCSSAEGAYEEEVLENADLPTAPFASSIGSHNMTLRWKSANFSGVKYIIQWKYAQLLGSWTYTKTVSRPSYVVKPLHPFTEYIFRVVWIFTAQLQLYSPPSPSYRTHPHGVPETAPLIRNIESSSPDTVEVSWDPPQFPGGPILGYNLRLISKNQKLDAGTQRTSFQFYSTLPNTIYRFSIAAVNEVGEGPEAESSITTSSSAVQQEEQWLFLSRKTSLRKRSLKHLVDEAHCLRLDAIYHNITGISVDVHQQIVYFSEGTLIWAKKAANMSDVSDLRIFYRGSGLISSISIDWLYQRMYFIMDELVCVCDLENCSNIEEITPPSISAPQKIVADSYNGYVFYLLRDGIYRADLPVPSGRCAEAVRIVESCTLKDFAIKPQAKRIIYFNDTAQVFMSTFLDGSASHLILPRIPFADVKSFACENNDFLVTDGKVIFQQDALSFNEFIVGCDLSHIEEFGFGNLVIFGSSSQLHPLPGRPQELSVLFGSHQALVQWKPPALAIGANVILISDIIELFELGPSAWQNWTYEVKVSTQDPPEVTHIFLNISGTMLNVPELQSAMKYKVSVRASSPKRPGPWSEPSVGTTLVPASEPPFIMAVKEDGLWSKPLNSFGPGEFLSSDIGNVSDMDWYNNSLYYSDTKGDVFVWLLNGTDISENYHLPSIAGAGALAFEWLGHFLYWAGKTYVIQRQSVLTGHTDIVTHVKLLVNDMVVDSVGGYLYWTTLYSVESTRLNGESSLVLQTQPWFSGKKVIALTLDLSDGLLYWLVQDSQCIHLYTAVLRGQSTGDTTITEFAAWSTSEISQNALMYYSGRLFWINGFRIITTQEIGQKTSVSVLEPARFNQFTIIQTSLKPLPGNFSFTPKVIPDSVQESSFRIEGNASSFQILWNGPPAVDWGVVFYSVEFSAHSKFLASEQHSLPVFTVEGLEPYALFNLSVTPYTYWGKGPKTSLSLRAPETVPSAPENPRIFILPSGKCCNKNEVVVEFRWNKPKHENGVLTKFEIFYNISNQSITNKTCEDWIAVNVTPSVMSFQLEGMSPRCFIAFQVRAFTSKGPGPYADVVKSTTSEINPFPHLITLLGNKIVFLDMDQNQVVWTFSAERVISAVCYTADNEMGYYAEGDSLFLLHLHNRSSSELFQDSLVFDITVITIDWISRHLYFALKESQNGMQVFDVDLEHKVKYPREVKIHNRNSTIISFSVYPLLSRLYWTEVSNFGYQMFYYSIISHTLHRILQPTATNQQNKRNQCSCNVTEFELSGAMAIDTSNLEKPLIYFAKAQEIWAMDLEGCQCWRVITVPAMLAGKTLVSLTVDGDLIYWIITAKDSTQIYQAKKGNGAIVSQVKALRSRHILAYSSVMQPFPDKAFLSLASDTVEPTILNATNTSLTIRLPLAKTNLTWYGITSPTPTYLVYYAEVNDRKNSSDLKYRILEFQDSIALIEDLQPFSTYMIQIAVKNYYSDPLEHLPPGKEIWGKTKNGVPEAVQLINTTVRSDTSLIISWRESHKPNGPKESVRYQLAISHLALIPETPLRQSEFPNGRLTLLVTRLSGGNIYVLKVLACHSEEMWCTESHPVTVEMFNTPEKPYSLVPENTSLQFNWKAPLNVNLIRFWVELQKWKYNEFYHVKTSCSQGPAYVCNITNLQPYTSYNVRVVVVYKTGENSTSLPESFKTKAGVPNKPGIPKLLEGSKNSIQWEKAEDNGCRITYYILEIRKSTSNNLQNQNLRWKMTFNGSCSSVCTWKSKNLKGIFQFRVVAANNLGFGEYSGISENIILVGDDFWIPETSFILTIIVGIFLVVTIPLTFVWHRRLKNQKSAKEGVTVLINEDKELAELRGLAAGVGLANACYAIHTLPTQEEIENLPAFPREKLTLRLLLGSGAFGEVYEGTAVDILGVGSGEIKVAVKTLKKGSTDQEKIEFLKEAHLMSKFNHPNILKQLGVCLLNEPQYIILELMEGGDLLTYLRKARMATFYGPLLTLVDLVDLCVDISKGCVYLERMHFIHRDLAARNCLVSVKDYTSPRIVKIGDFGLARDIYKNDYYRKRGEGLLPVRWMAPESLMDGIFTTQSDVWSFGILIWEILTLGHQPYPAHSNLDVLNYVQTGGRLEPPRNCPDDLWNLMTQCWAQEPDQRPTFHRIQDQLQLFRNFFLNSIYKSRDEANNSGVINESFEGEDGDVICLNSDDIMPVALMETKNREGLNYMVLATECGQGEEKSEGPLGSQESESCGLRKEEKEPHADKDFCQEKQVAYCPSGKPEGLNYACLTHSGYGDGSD
T3 sequence (Q16288 32-839): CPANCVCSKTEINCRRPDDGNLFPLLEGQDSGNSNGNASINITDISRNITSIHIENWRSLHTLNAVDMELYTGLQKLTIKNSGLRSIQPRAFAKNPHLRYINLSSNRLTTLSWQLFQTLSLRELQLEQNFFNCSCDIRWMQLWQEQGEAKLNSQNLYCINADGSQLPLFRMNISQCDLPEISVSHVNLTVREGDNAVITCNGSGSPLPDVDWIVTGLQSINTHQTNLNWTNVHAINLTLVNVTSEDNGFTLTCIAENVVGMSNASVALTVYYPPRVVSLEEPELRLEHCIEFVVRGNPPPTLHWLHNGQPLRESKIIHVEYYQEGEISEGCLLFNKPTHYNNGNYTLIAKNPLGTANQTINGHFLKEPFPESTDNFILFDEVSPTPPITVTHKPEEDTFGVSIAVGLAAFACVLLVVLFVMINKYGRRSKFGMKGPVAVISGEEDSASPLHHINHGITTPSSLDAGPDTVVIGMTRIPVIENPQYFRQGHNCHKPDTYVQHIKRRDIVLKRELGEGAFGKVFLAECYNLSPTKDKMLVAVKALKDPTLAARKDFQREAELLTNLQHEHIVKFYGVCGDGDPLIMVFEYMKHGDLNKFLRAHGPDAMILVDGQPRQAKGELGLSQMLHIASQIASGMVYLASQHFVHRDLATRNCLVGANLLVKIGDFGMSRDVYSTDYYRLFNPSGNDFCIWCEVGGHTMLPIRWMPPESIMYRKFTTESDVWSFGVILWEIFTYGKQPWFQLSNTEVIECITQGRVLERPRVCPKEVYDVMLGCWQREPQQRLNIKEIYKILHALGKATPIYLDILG
T2 sequence (P08922 28-2347 G2032R): as the sequence (P08922 28-2347) above, with G2005R counted along it

- IC50 (BaF3 ETV6-NTRK3-G623R): 3.4 nM
- Apparent Clearance Cl ([2]; IV @ 1 mpk, male CD-1 mice): 6.3 mL/kg/min
- Drug Concentration in Cerebrospinal Fluid at 0.5 h ([2]; PO @ 3 mpk, CSF, 0.5 h): 63 nmol/kg
- Drug Concentration in Cerebrospinal Fluid at 2 h ([2]; PO @ 3 mpk, CSF, 2 h): 21 nmol/kg
- Drug Concentration in Brain at 0.5 h ([2]; PO @ 3 mpk, brain, 0.5 h): 663 nmol/kg
- Drug Concentration in Brain at 2 h ([2]; PO @ 3 mpk, brain, 2 h): 343 nmol/kg
- Vd ([2]; mouse, plasma, 1 mg/kg, IV @ 1 mpk, male CD-1 mice, read-out: Apparent Distribution Volume Vd): 0.57 L/kg
- AUC(0-inf) ([2]; mouse, plasma, 1 mg/kg, IV @ 1 mpk, male CD-1 mice): 6.69 µM·h
- half-life ([2]; mouse, plasma, 1 mg/kg, IV @ 1 mpk, male CD-1 mice, read-out: Half-life T1/2 (converted)): 52.8 min
- C0 ([2]; mouse, plasma, 1 mg/kg, IV @ 1 mpk, male CD-1 mice, read-out: Initial Concentration C0): 3.71 µM
- bioavailability ([2]; mouse, plasma, 3 mg/kg, PO @ 3 mpk vs IV @ 1 mpk, male CD-1 mice, read-out: Bioavailability F %): 76%
- AUC(0-inf) ([2]; mouse, plasma, 3 mg/kg, PO @ 3 mpk, male CD-1 mice): 19.8 µM·h
- Cmax ([2]; mouse, plasma, 3 mg/kg, PO @ 3 mpk, male CD-1 mice, read-out: Peak Concentration Cmax): 4.74 µM
- Tmax ([2]; mouse, plasma, 3 mg/kg, PO @ 3 mpk, male CD-1 mice, read-out: Time to Peak Tmax): 15 min
- Apparent Clearance Cl ([3]; IV, 3 mg/kg): 7.2 mL/kg/min
- Vd ([3]; mouse, plasma, IV, 3 mg/kg, read-out: Apparent Distribution Volume Vd): 0.49 L/kg
- AUC(0-t) ([3]; mouse, plasma, IV, 3 mg/kg): 17.5 µM·h
- half-life ([3]; mouse, plasma, IV, 3 mg/kg, read-out: Half-life T1/2 (converted)): 45 min
- bioavailability ([3]; mouse, plasma, PO (10 mL/kg [sic]) vs IV 3 mg/kg, read-out: Bioavailability F %): 51%
- AUC(0-t) ([3]; mouse, plasma, PO, dosage given as 10 mL/kg): 29.8 µM·h
- Cmax ([3]; mouse, plasma, PO, dosage given as 10 mL/kg, read-out: Peak Concentration Cmax): 9.14 µM
- Tmax ([3]; mouse, plasma, PO, dosage given as 10 mL/kg, read-out: Time to Peak Tmax): 30 min
- IC50 (Ba/F3 LMNA-NTRK1-F589L): 0.78 nM
- IC50 (Ba/F3 LMNA-NTRK1-G595R): 6.2 nM
- IC50 (TrkA): 2.07 nM
- IC50 (Ros-G2032R): 0.4 nM
- IC50 (TrkC): 0.14 nM
- IC50 (Ros1): 0.14 nM
- IC50 (TrkA-G595R): 3.6 nM
- IC50 (TrkA-G667C): 7 nM
- IC50 [4]: 16.1 nM
- IC50 (Ba/F3 SLC34A2-ROS1-WT): 2.53 nM
Structure (SMILES): O=C1NC2(CC2)COc2ncc(F)cc2[C@H]2CCON2c2ccn3ncc1c3n2 [Compound of Formula (I)]
- T/C ([1]; 3 mg/kg BID): 9.57%
- TGI ([1]; 3 mg/kg BID): 118.02%
- T/C ([1]; 15 mg/kg BID): 3.07%
- TGI ([1]; 15 mg/kg BID): 126.88%
- T/C ([1]; 30 mg/kg BID): 1.87%
- TGI ([1]; 30 mg/kg BID): 128.36%
